Legend:
Format in all cases: in vivo
BACHD mice [1] = test: Gene/protein levels, dendritic spines and mitochondrial morphology in BACHD mice
Procedure: (§1) The inventors treated BACHD mice and non-transgenic wild-type mice with Mdivi-1 for six months. Behavioral analysis were performed using rotarod (motor coordination), open field (locomotor activity), Y-maze (working memory) and tail suspension (neurological phenotype) in both treated and untreated BACHD and non-transgenic wild-type (WT) mice. […] The inventors also completed studies on the cell and molecular biology aspects of mitochondria and mutant huntingtin experiments. And also completed experiments on mitochondrial morphology (number and length) dendritic spine density in Mdivi-1-treated and untreated BACHD and non-transgenic WT mice.
Mdivi-1-treated BACHD mice had increased dendritic spines in striatal, cortical and hippocampal tissues of Mdivi-1-treated BACHD mice relative Mdivi-1-untreated BACHD mice. Mdivi-1-treated BACHD mice had increased mitochondrial length and reduced the size of mitochondrial size.

BACHD mice [2] = test: Behavioral analysis in BACHD mice; details: BACHD mice treated for six months vs untreated BACHD mice
Procedure: Huntington's disease. To determine whether Mdivi1 reduces excessive mitochondrial fragmentation and enhances mitochondrial function and synaptic activity in bacterial artificial chromosome transgenic Huntington's disease (BACHD) mice.
as §1

[3] = test system: transgenic Tau (P301L strain) mice; test: Morris Water Maze, transgenic Tau mice; details: 12-month-old Tau mice, 3 weeks
Excerpt: (§2) Impact of MitoQ in Wild-type and Transgenic Tau mice: The inventors investigated the protective effects of MitoQ and daily exercise in 12-month-old transgenic Tau (P301L strain) and age-matched wild-type mice. The purpose of this study was to assess the lifestyle factors (antioxidant-enriched diet) and physical exercise (Treadmill) effects on cognitive behavior and AD pathologies (Abeta, P-tau, mitochondrial and synaptic) in AD mice.
(§3) First, the inventors fed wild-type, Tau and APP/PS1 mice with (500 uM of MitoQ in drinking water) and physical exercise (30 minutes on Treadmill) for 3 weeks. The inventors used 12-month-old animals (n=7) per group for all treatments (WT-MitoQ, WT-Treadmill, WT-MitoQ+Treadmill), Tau (Tau-MitoQ, Tau-Treadmill,Tau-MitoQ+Treadmill) and APP/PS1 (APP/PS1-MitoQ, APP/PS1-Treadmill, APP/PS1-MitoQ+Treadmill). Age-matched control mice were used for all genotypes in these studies. After 3-weeks treatment, the cognitive behavior using Morris Water Maze test was assessed.
(§4) The inventors conducted 11 trials (4 training and 7 actual) for latency to find the platform for all groups of mice.

wild-type mice = test: Morris Water Maze, wild-type mice; details: 12-month-old WT mice, 3 weeks, vs control WT mice
Excerpt: as §2, §3, §4

[4] = treated vs untreated BACHD mice

SMILES | dendritic spines (BACHD mice [1]; striatal, cortical and hippocampal tissues, treated vs untreated BACHD mice) | mitochondrial length (BACHD mice [1]; treated BACHD mice) | size of mitochondrial size (BACHD mice [1]; treated BACHD mice) | Mitochondrial biogenesis (PGC1a, Nrf1, Nrf2 and TFAM) genes (BACHD mice [1]; [4]) | autophagy (LC3A, LC3B, ATG5, Beclin 1) genes (BACHD mice [1]; [4]) | mRNA and protein levels of fission genes (Drp1 and Fis1) (BACHD mice [1]; [4]) | mitochondrial fusion genes (Mfn1, Mfn2, and Opa1) (BACHD mice [1]; [4]) | mitophagy (PINK1, TERT, BCL2, BNIP3L) genes (BACHD mice [1]; [4]) | synaptic (synaptophysin, PSD95, DARPP32) genes (BACHD mice [1]; [4]) | behavioral phenotype (rotarod, open field, Y-maze, tail suspension) (BACHD mice [2]) | latency to reach platform ([3]; 500 uM in drinking water, vs MitoQ untreated Tau mice) | latency to reach platform ([3]; MitoQ+Treadmill, vs MitoQ+Treadmill untreated Tau mice) | latency to find the platform (wild-type mice; 500 uM in drinking water) | latency to find the platform (wild-type mice; MitoQ+Treadmill (30 minutes))
COc1cc(-n2c(S)nc3ccccc3c2=O)c(Cl)cc1Cl [Mdivi-1, 3-(2,4-Dichloro-5-methoxyphenyl)-2,3-dihydro-2-thioxo-4(1H)-quinazolinone, 3-(2,4-Dichloro-5-methoxyphenyl)-2-sulfanyl-4(3H)-quinazolinone] | increased | increased | reduced | increased | increased | significantly reduced | significantly increased | increased | increased | significantly improved |  |  |  | 
COC1=C(OC)C(=O)C(CCCCCCCCCC[P+](c2ccccc2)(c2ccccc2)c2ccccc2)=C(C)C1=O [MitoQ, Phosphonium, [10-(4,5-dimethoxy-2-methyl-3,6-dioxo-1,4-cyclohexadien-1-yl)decyl]triphenyl-, methanesulfonate] |  |  |  |  |  |  |  |  |  |  | much quicker | significantly faster | did not show any significant difference | significantly faster

From US12208108B2, “Drug targets of delayed aging and human brain diseases” (Texas Tech University System, priority 2016, dated 2025)
